{
  "source": "ChEMBL document CHEMBL3217643",
  "about": "“Discovery of hydroxamate bioisosteres as KAT II inhibitors with improved oral bioavailability and pharmacokinetics” (Medchemcomm, 2013)",
  "key": {"[1]": {"target": "T1, Kynurenine/alpha-aminoadipate aminotransferase, mitochondrial (Homo sapiens, UniProt Q8N5Z0)", "assay": "Ratio of Kinact to Ki for KAT2 (unknown origin)"}, "[2]": {"target": "T1, Kynurenine/alpha-aminoadipate aminotransferase, mitochondrial", "assay": "Inhibition of KAT2 (unknown origin)"}, "[3]": {"assay": "Oral bioavailability in dog", "assay_type": "ADME, organism-based, Canis lupus familiaris", "conditions": "in vivo; call rule not given here"}, "[4]": {"assay": "Oral bioavailability in rat", "assay_type": "ADME, organism-based", "conditions": "in vivo"}, "[5]": {"assay": "Drug uptake in CD-1 mouse cerebral spinal fluid", "assay_type": "ADME, Cerebrospinal fluid", "conditions": "in vivo"}, "[6]": {"assay": "Blood clearance in iv dosed dog", "assay_type": "ADME, organism-based, Canis lupus familiaris"}, "[7]": {"assay": "Drug degradation assessed as metabolite formation by LC-MS/MS analysis", "assay_type": "physicochemical"}, "[8]": {"assay": "Half life in human liver microsomes", "assay_type": "ADME"}, "[9]": {"assay": "Blood clearance in iv dosed rat", "assay_type": "ADME, organism-based"}, "[10]": {"test_system": "Brain", "assay": "Drug uptake in CD-1 mouse brain", "assay_type": "ADME, tissue-based", "conditions": "in vivo"}, "[11]": {"test_system": "P-gp", "assay": "Efflux ratio in MDCK cells overexpressing Pgp", "assay_type": "ADME, cell-based, Canis lupus familiaris", "conditions": "dog, MDCK-MDR1"}, "[12]": {"assay": "Half life in human hepatocytes", "assay_type": "ADME, cell-based, Hepatocyte"}},
  "data": [
    {"molecule": "COc1cccc(Oc2ccc3c(c2)CC(N)c2nncn2-3)c1", "note": "(stereo not given)", "values": [
      {"measurement": "Ratio", "setting": "[1]", "result": 2920, "unit": "M⁻¹ s⁻¹"},
      {"measurement": "IC50", "setting": "[2]", "result": 201, "unit": "nM"},
      {"measurement": "Ki", "setting": "[2]", "result": 81.5, "unit": "nM"},
      {"measurement": "Kinact", "setting": "[2]", "result": 0.0141, "unit": "min⁻¹"}
    ]},
    {"molecule": "N[C@H]1Cc2ccccc2N(O)C1=O", "values": [
      {"measurement": "bioavailability", "setting": "[3]", "result": 18.5, "unit": "%"},
      {"measurement": "bioavailability", "setting": "[4]", "result": 10.8, "unit": "%"}
    ]},
    {"molecule": "COc1cccc(Oc2ccc3c(c2)CC(N)c2n[nH]c(=O)n2-3)c1", "note": "(stereo not given)", "values": [
      {"measurement": "Drug uptake", "setting": "[5]", "result": "Active"},
      {"measurement": "clearance", "setting": "[6]", "result": 4.5, "unit": "mL/min/kg"},
      {"measurement": "bioavailability", "setting": "[3]", "result": 100, "unit": "%"},
      {"measurement": "Retention_time", "setting": "[7]", "result": 31.8, "unit": "min"},
      {"measurement": "half-life", "setting": "[8]", "result": "> 1.73", "unit": "h"},
      {"measurement": "clearance", "setting": "[9]", "result": 78.4, "unit": "mL/min/kg"},
      {"measurement": "Ratio", "setting": "[1]", "result": 5060, "unit": "M⁻¹ s⁻¹"},
      {"measurement": "Drug uptake", "setting": "[10]", "result": "Active"},
      {"measurement": "efflux ratio", "setting": "[11]", "result": 1.51},
      {"measurement": "half-life", "setting": "[12]", "result": 1.9, "unit": "h"},
      {"measurement": "bioavailability", "setting": "[4]", "result": 40, "unit": "%"},
      {"measurement": "IC50", "setting": "[2]", "result": 65, "unit": "nM"},
      {"measurement": "Ki", "setting": "[2]", "result": 5.1, "unit": "nM"},
      {"measurement": "Kinact", "setting": "[2]", "result": 0.0155, "unit": "min⁻¹"}
    ]}
  ]
}
